{"source": "paper PMC5218480", "about": "(PLoS ONE, 2017)", "tested_on": "MV-4-11 cells", "assay": "Gene expression microarray analysis (Affymetrix PrimeView) and GSEA", "assay_type": "cell-based, human", "design": "RFU PODN (11730768_x_at) / Fold change /veh PODN (11730768_x_at) / RFU LINC00158 (11744669_a_at) / Fold change /veh LINC00158 (11744669_a_at) / RFU DUSP10 (11751237_a_at) / Fold change /veh DUSP10 (11751237_a_at) / RFU ID3 (11757404_x_at) / Fold change /veh ID3 (11757404_x_at) / RFU PLEKHG5 (11737974_s_at) / Fold change /veh PLEKHG5 (11737974_s_at) / RFU LRRC4B (11730491_at) / Fold change /veh LRRC4B (11730491_at) / RFU GIMAP4 (11747438_a_at) / Fold change /veh GIMAP4 (11747438_a_at) / RFU KRT8 (11758183_x_at) / Fold change /veh KRT8 (11758183_x_at) / RFU CNN1 (11734310_a_at) / Fold change /veh CNN1 (11734310_a_at) / RFU VPS37D (11726825_at) / Fold change /veh VPS37D (11726825_at) / RFU C10orf10 (11716522_x_at) / Fold change /veh C10orf10 (11716522_x_at) / RFU KIR2DL2 /// KIR2DL4 /// KIR2DL5A /// KIR2DL5B /// KIR2DS1 /// KIR2DS2 /// KIR2DS3 /// KIR2DS4 /// KIR3DL3 /// KIR3DL3 /// KIR3DS1 (11738374_at) / Fold change /veh KIR2DL2 /// KIR2DL4 /// KIR2DL5A /// KIR2DL5B /// KIR2DS1 /// KIR2DS2 /// KIR2DS3 /// KIR2DS4 /// KIR3DL3 /// KIR3DL3 /// KIR3DS1 (11738374_at) / RFU C1QL1 (11718748_at) / Fold change /veh C1QL1 (11718748_at) / RFU TMPRSS4 (11747572_a_at) / Fold change /veh TMPRSS4 (11747572_a_at) / RFU HAMP (11756126_x_at) / Fold change /veh HAMP (11756126_x_at) / RFU RNFT2 (11725882_a_at) / Fold change /veh RNFT2 (11725882_a_at) / RFU NR4A2 (11747474_a_at) / Fold change /veh NR4A2 (11747474_a_at) / RFU ABCC12 (11746883_a_at) / Fold change /veh ABCC12 (11746883_a_at) / RFU TMEM136 (11760407_x_at) / Fold change /veh TMEM136 (11760407_x_at) / RFU CLDN22 /// WWC2 (11732394_at) / Fold change /veh CLDN22 /// WWC2 (11732394_at) / RFU HLA-DPB1 (11760878_x_at) / Fold change /veh HLA-DPB1 (11760878_x_at) / RFU SPINT1 (11716480_a_at) / Fold change /veh SPINT1 (11716480_a_at) / RFU GAP43 (11754022_s_at) / Fold change /veh GAP43 (11754022_s_at) / RFU A4GNT (11735810_at) / Fold change /veh A4GNT (11735810_at) / RFU PRB3 (11715151_x_at) / Fold change /veh PRB3 (11715151_x_at) / RFU TUBB4B (11761932_at) / Fold change /veh TUBB4B (11761932_at) / RFU CAPN14 (11732068_a_at) / Fold change /veh CAPN14 (11732068_a_at) / RFU TMCC2 (11721928_a_at) / Fold change /veh TMCC2 (11721928_a_at) / RFU IRGQ (11745062_a_at) / Fold change /veh IRGQ (11745062_a_at) / RFU FAM174B (11720279_a_at) / Fold change /veh FAM174B (11720279_a_at) / RFU TMPRSS4 (11748680_a_at) / Fold change /veh TMPRSS4 (11748680_a_at) / RFU FAM212B (11763350_a_at) / Fold change /veh FAM212B (11763350_a_at) / RFU PLEKHG5 (11743358_a_at) / Fold change /veh PLEKHG5 (11743358_a_at) / RFU ZSCAN30 (11745921_a_at) / Fold change /veh ZSCAN30 (11745921_a_at) / RFU CMKLR1 (11741424_a_at) / Fold change /veh CMKLR1 (11741424_a_at) / RFU LOC101060620 /// MAPK8IP1 (11723275_at) / Fold change /veh LOC101060620 /// MAPK8IP1 (11723275_at) / RFU SPTSSB (11747773_x_at) / Fold change /veh SPTSSB (11747773_x_at) / RFU PRSS12 (11739890_at) / Fold change /veh PRSS12 (11739890_at) / RFU BIN1 (11741810_x_at) / Fold change /veh BIN1 (11741810_x_at) / RFU WNT11 (11732464_a_at) / Fold change /veh WNT11 (11732464_a_at) / RFU C10orf10 (11716521_a_at) / Fold change /veh C10orf10 (11716521_a_at) / RFU C5orf56 (11738089_at) / Fold change /veh C5orf56 (11738089_at) / RFU CYB561 (11721691_x_at) / Fold change /veh CYB561 (11721691_x_at) / RFU ANKRD19P (11752326_a_at) / Fold change /veh ANKRD19P (11752326_a_at) / RFU OR2T12 /// OR2T33 /// OR2T8 (11738714_s_at) / Fold change /veh OR2T12 /// OR2T33 /// OR2T8 (11738714_s_at) / RFU VCAN (11748164_a_at) / Fold change /veh VCAN (11748164_a_at) / RFU JSRP1 (11732532_at) / Fold change /veh JSRP1 (11732532_at) / RFU KRTAP10-11 (11738290_x_at) / Fold change /veh KRTAP10-11 (11738290_x_at) / RFU MYO3A (11730013_a_at) / Fold change /veh MYO3A (11730013_a_at) / RFU EBF3 (11725865_a_at) / Fold change /veh EBF3 (11725865_a_at) / RFU CAMK2N1 (11719241_x_at) / Fold change /veh CAMK2N1 (11719241_x_at) / RFU C5orf56 (11738088_a_at) / Fold change /veh C5orf56 (11738088_a_at) / RFU OLFML3 (11715873_a_at) / Fold change /veh OLFML3 (11715873_a_at) / RFU LOC100653217 /// NTM (11731650_a_at) / Fold change /veh LOC100653217 /// NTM (11731650_a_at) / RFU MAPK11 (11762145_a_at) / Fold change /veh MAPK11 (11762145_a_at) / RFU FIZ1 (11724087_x_at) / Fold change /veh FIZ1 (11724087_x_at) / RFU OASL (11726364_x_at) / Fold change /veh OASL (11726364_x_at) / RFU SOX15 (11748057_x_at) / Fold change /veh SOX15 (11748057_x_at) / RFU CD79A (11719716_a_at) / Fold change /veh CD79A (11719716_a_at) / RFU HIST1H1D (11736915_at) / Fold change /veh HIST1H1D (11736915_at) / RFU CASKIN2 (11723855_a_at) / Fold change /veh CASKIN2 (11723855_a_at) / RFU LOC730098 (11760151_x_at) / Fold change /veh LOC730098 (11760151_x_at) / RFU OR4N2 (11742367_at) / Fold change /veh OR4N2 (11742367_at) / RFU PRRT2 (11749266_a_at) / Fold change /veh PRRT2 (11749266_a_at) / RFU SNX32 (11753110_a_at) / Fold change /veh SNX32 (11753110_a_at) / RFU CDHR5 (11726645_a_at) / Fold change /veh CDHR5 (11726645_a_at) / RFU RCAN1 (11760418_a_at) / Fold change /veh RCAN1 (11760418_a_at) / RFU FAM167A (11723789_a_at) / Fold change /veh FAM167A (11723789_a_at) / RFU FAM26E (11764081_at) / Fold change /veh FAM26E (11764081_at) / RFU ISYNA1 (11749810_s_at) / Fold change /veh ISYNA1 (11749810_s_at) / RFU ACY1 (11761880_at) / Fold change /veh ACY1 (11761880_at) / RFU 11764098_at / Fold change /veh 11764098_at / RFU SAMD14 (11745864_x_at) / Fold change /veh SAMD14 (11745864_x_at) / RFU NPB (11741838_a_at) / Fold change /veh NPB (11741838_a_at) / RFU TMPRSS6 (11731388_a_at) / Fold change /veh TMPRSS6 (11731388_a_at) / RFU KRTAP10-2 (11738614_at) / Fold change /veh KRTAP10-2 (11738614_at) / RFU ARHGAP8 /// PRR5-ARHGAP8 (11727945_x_at) / Fold change /veh ARHGAP8 /// PRR5-ARHGAP8 (11727945_x_at) / RFU KRTAP5-7 /// NADSYN1 (11734609_at) / Fold change /veh KRTAP5-7 /// NADSYN1 (11734609_at) / RFU RASL12 (11751679_a_at) / Fold change /veh RASL12 (11751679_a_at) / RFU CDKN2B (11736163_a_at) / Fold change /veh CDKN2B (11736163_a_at) / RFU PRF1 (11729649_at) / Fold change /veh PRF1 (11729649_at) / RFU, ZNF638 /// ZNF638-IT1 / Fold change vs veh, ZNF638 /// ZNF638-IT1 / RFU, PANK3 / Fold change vs veh, PANK3 / RFU, SH3YL1 / Fold change vs veh, SH3YL1 / RFU, ZEB2 / Fold change vs veh, ZEB2 / RFU, NRIP1 / Fold change vs veh, NRIP1 / RFU, PTTG1IP / Fold change vs veh, PTTG1IP / RFU, CAPN2 / Fold change vs veh, CAPN2 / RFU, MED14 / Fold change vs veh, MED14 / RFU, SNORA58 / Fold change vs veh, SNORA58 / RFU, C1orf63 / Fold change vs veh, C1orf63 / RFU, LRRFIP1 / Fold change vs veh, LRRFIP1 / RFU, NDUFAF7 / Fold change vs veh, NDUFAF7 / RFU, SLC12A2 / Fold change vs veh, SLC12A2 / RFU, IBTK / Fold change vs veh, IBTK / RFU, ESF1 / Fold change vs veh, ESF1 / Fold change vs veh, TMEM50B / RFU, TAOK1 / Fold change vs veh, TAOK1 / RFU, ACBD3 / Fold change vs veh, ACBD3 / RFU, TMA16 / Fold change vs veh, TMA16 / RFU, RWDD3 / Fold change vs veh, RWDD3 / RFU, BCAT1 / Fold change vs veh, BCAT1 / RFU, EDEM3 / Fold change vs veh, EDEM3 / RFU, TMEM33 / Fold change vs veh, TMEM33 / RFU, WDR75 / Fold change vs veh, WDR75 / RFU, AHCTF1 / Fold change vs veh, AHCTF1 / RFU, TFRC / Fold change vs veh, TFRC / RFU, ZDHHC17 / Fold change vs veh, ZDHHC17 / RFU, NOM1 / Fold change vs veh, NOM1 / RFU, ARL8B / Fold change vs veh, ARL8B / RFU, ZBTB11 / Fold change vs veh, ZBTB11 / RFU, TAMM41 / Fold change vs veh, TAMM41 / RFU, KIAA1704 /// LOC100996395 / Fold change vs veh, KIAA1704 /// LOC100996395 / RFU, ING1 / Fold change vs veh, ING1 / RFU, TRMT61B / Fold change vs veh, TRMT61B / RFU, FUBP3 / Fold change vs veh, FUBP3 / RFU, TP53 / Fold change vs veh, TP53 / RFU, TNKS2 / Fold change vs veh, TNKS2 / RFU, ZFP14 / Fold change vs veh, ZFP14 / RFU, ACTR2 / Fold change vs veh, ACTR2 / RFU, PPP3R1 / Fold change vs veh, PPP3R1 / RFU, PIK3R1 / Fold change vs veh, PIK3R1 / RFU, HNRNPA1 / Fold change vs veh, HNRNPA1 / RFU, RNF170 / Fold change vs veh, RNF170 / RFU, ZNF28 / Fold change vs veh, ZNF28 / RFU, RNGTT / Fold change vs veh, RNGTT / RFU, OGT / Fold change vs veh, OGT / RFU, BRD1 / Fold change vs veh, BRD1 / RFU, MARS / Fold change vs veh, MARS / RFU, ZNF655 / Fold change vs veh, ZNF655 / RFU, FAHD1 / Fold change vs veh, FAHD1 / RFU, BDP1 / Fold change vs veh, BDP1 / RFU, LRRCC1 / Fold change vs veh, LRRCC1 / RFU, ARID1A / Fold change vs veh, ARID1A / RFU, ZNF146 / Fold change vs veh, ZNF146 / RFU, ZNF330 / Fold change vs veh, ZNF330 / RFU, GPN3 / Fold change vs veh, GPN3 / RFU, C9orf123 / Fold change vs veh, C9orf123 / RFU, N4BP2L2 / Fold change vs veh, N4BP2L2 / RFU, ARFIP1 / Fold change vs veh, ARFIP1 / RFU, FAM179B / Fold change vs veh, FAM179B / RFU, BCL10 / Fold change vs veh, BCL10 / RFU, UHRF1BP1L / Fold change vs veh, UHRF1BP1L / RFU, BET1 / Fold change vs veh, BET1 / RFU, CNOT2 / Fold change vs veh, CNOT2 / RFU, ZNF268 / Fold change vs veh, ZNF268 / Fold change vs veh, ZNF507 / RFU, DGCR2 / Fold change vs veh, DGCR2 / RFU, WDSUB1 / Fold change vs veh, WDSUB1 / Fold change vs veh, HSP90B1 /// MIR3652 / RFU, ADSS / Fold change vs veh, ADSS / RFU, GK / Fold change vs veh, GK / RFU, ZNF148 / Fold change vs veh, ZNF148 / RFU, TAF9 / Fold change vs veh, TAF9 / RFU, SLC1A5 / Fold change vs veh, SLC1A5 / RFU, SLMO2 / Fold change vs veh, SLMO2 / RFU, ABCC4 / Fold change vs veh, ABCC4 / RFU, LOC101060439 /// RAP1B / Fold change vs veh, LOC101060439 /// RAP1B / RFU, RFX7 / Fold change vs veh, RFX7 / RFU, GTPBP10 / Fold change vs veh, GTPBP10 / RFU, CNEP1R1 / Fold change vs veh, CNEP1R1 / RFU, BIVM-ERCC5 /// ERCC5 / Fold change vs veh, BIVM-ERCC5 /// ERCC5 / RFU, ILF3 / Fold change vs veh, ILF3 / RFU 11762660_at / Fold change /veh 11762660_at / RFU VCAN (11757783_s_at) / Fold change /veh VCAN (11757783_s_at) / RFU DDX43 (11728927_at) / Fold change /veh DDX43 (11728927_at) / RFU KRT8 (11758188_x_at) / Fold change /veh KRT8 (11758188_x_at) / RFU NKD1 (11759106_at) / Fold change /veh NKD1 (11759106_at) / RFU SRD5A1 (11742802_a_at) / Fold change /veh SRD5A1 (11742802_a_at) / RFU TPSAB1 /// TPSB2 (11721975_s_at) / Fold change /veh TPSAB1 /// TPSB2 (11721975_s_at) / RFU GSTM3 (11746129_a_at) / Fold change /veh GSTM3 (11746129_a_at) / RFU IL23R (11737362_x_at) / Fold change /veh IL23R (11737362_x_at) / RFU TMEM51 (11727254_a_at) / Fold change /veh TMEM51 (11727254_a_at) / RFU PIWIL2 (11732686_x_at) / Fold change /veh PIWIL2 (11732686_x_at) / RFU ORM1 (11744905_x_at) / Fold change /veh ORM1 (11744905_x_at) / RFU CCDC152 (11743942_at) / Fold change /veh CCDC152 (11743942_at) / RFU ECM1 (11717891_a_at) / Fold change /veh ECM1 (11717891_a_at) / RFU IL23R (11748794_a_at) / Fold change /veh IL23R (11748794_a_at) / RFU TNFAIP8L3 (11732012_x_at) / Fold change /veh TNFAIP8L3 (11732012_x_at) / RFU MBOAT4 (11741988_at) / Fold change /veh MBOAT4 (11741988_at) / RFU 11764193_at / Fold change /veh 11764193_at / RFU TMEM53 (11763286_at) / Fold change /veh TMEM53 (11763286_at) / RFU MAGEB2 (11727129_at) / Fold change /veh MAGEB2 (11727129_at) / RFU TMEM200A (11744735_a_at) / Fold change /veh TMEM200A (11744735_a_at) / RFU CCDC152 (11751479_a_at) / Fold change /veh CCDC152 (11751479_a_at) / RFU FAM211A (11726209_a_at) / Fold change /veh FAM211A (11726209_a_at) / RFU RGS16 (11746705_a_at) / Fold change /veh RGS16 (11746705_a_at) / RFU VCAN (11755009_s_at) / Fold change /veh VCAN (11755009_s_at) / RFU RHOB (11743442_s_at) / Fold change /veh RHOB (11743442_s_at) / RFU RGS16 (11720943_a_at) / Fold change /veh RGS16 (11720943_a_at) / RFU RGS16 (11720944_at) / Fold change /veh RGS16 (11720944_at) / RFU, VPS4B / Fold change vs veh, VPS4B / RFU, CREB1 / Fold change vs veh, CREB1 / RFU, DNAJC13 / Fold change vs veh, DNAJC13 / RFU, GNAQ / Fold change vs veh, GNAQ / RFU, CDK5R1 / Fold change vs veh, CDK5R1 / RFU, ZRANB3 / Fold change vs veh, ZRANB3 / RFU, CUL4A / Fold change vs veh, CUL4A / RFU, CCNY / Fold change vs veh, CCNY / RFU, UFL1 / Fold change vs veh, UFL1 / RFU, COG3 / Fold change vs veh, COG3 / RFU, DIAPH2 / Fold change vs veh, DIAPH2 / RFU, SKA2 / Fold change vs veh, SKA2 / RFU, AFF3 / Fold change vs veh, AFF3 / RFU, LMF1 / Fold change vs veh, LMF1 / RFU, IPO11 / Fold change vs veh, IPO11 / RFU, DFFB / Fold change vs veh, DFFB / RFU, FOXP1 / Fold change vs veh, FOXP1 / RFU, CARD8 / Fold change vs veh, CARD8 / RFU, STRN3 / Fold change vs veh, STRN3 / RFU, ADK / Fold change vs veh, ADK / RFU, RASSF2 / Fold change vs veh, RASSF2 / RFU, WIPF1 / Fold change vs veh, WIPF1 / RFU, LARP1B / Fold change vs veh, LARP1B / RFU, RASA1 / Fold change vs veh, RASA1 / RFU, RB1 / Fold change vs veh, RB1 / RFU, PPFIA1 / Fold change vs veh, PPFIA1 / RFU, MAT2A / Fold change vs veh, MAT2A / RFU, CCT5 / Fold change vs veh, CCT5 / RFU, WDR92 / Fold change vs veh, WDR92 / RFU, CUX1 / Fold change vs veh, CUX1 / RFU, TTC7A / Fold change vs veh, TTC7A / RFU, TMEM135 / Fold change vs veh, TMEM135 / RFU, DEPTOR / Fold change vs veh, DEPTOR / RFU, CPM / Fold change vs veh, CPM / RFU, DNAJB6 / Fold change vs veh, DNAJB6 / RFU, CACNA2D3 / Fold change vs veh, CACNA2D3 / RFU, DTX4 / Fold change vs veh, DTX4 / RFU, TFCP2 / Fold change vs veh, TFCP2 / RFU, GMCL1 /// GMCL1P1 / Fold change vs veh, GMCL1 /// GMCL1P1 / RFU, AEBP2 / Fold change vs veh, AEBP2 / RFU, SNHG1 /// SNORD22 /// SNORD25 /// SNORD26 /// SNORD27 /// SNORD28 /// SNORD29 /// SNORD31 / Fold change vs veh, SNHG1 /// SNORD22 /// SNORD25 /// SNORD26 /// SNORD27 /// SNORD28 /// SNORD29 /// SNORD31 / Fold change (Aza/veh), C12orf56 (ProbeSet 11735607_a_at) / Fold change (ACY-1035/veh), C12orf56 (ProbeSet 11735607_a_at) / Fold change (Aza/veh), FGFR1OP (ProbeSet 11751329_s_at) / Fold change (ACY-1035/veh), FGFR1OP (ProbeSet 11751329_s_at) / Fold change (Aza/veh), VPS36 (ProbeSet 11739960_a_at) / Fold change (ACY-1035/veh), VPS36 (ProbeSet 11739960_a_at) / RFU SYPL1 (11715823_x_at) / Fold change /veh SYPL1 (11715823_x_at) / RFU IGFBP7 (11715501_s_at) / Fold change /veh IGFBP7 (11715501_s_at) / RFU REEP3 (11722064_at) / Fold change /veh REEP3 (11722064_at) / RFU IGLL1 (11728026_x_at) / Fold change /veh IGLL1 (11728026_x_at): dose or concentration left out as unconfirmed", "conditions": "ProbeSet 11739263_x_at; LIST D", "data": [{"smiles": "Nc1ncn([C@@H]2O[C@H](CO)[C@@H](O)[C@H]2O)c(=O)n1", "note": "[azacitidine]", "values": [{"measurement": "Fold change vs veh, VPS4B", "value": 0.80}]}]}
